Test results published in US8314121B2, “Imidazolone derivatives, preparation thereof as drugs, pharmaceutical compositions, and use thereof as protein kinase inhibitors, in particular CDC7” (Sanofi, priority 2006, dated 2012).

Row | Compound | melting point [°C]
1 | O=C1NC(N2CCCCCC2)=N/C1=C\c1c[nH]c2ncc(-c3ccccc3)cc12 [Example 42, (5Z)-2-azepan-1-yl-5-[(5-phenyl-1H-pyrrolo[2,3-b]pyridin-3-yl)methylidene]-3,5-dihydro-4H-imidazol-4-one] | 302
2 | N#Cc1cnc2[nH]cc(/C=C3\N=C(NCC4CC4)NC3=O)c2c1 [Example 37, 3-[(Z)-{2-[(cyclopropylmethyl)amino]-5-oxo-1,5-dihydro-4H-imidazol-4-ylidene}methyl]-1H-pyrrolo[2,3-b]pyridine-5-carbonitrile] | 335
3 | O=C1NC(SCc2ccccc2)=N/C1=C\c1c[nH]c2ncc(Cl)cc12 [Example 61, (5Z)-2-(benzylsulphanyl)-5-[(5-chloro-1H-pyrrolo[2,3-b]pyridin-3-yl)methylidene]-3,5-dihydro-4H-imidazol-4-one] | 313 to 315
4 | CC(C)SC1=N/C(=C\c2c[nH]c3ncc(Cl)cc23)C(=O)N1 [Example 63, (5Z)-5-[(5-chloro-1H-pyrrolo[2,3-b]pyridin-3-yl)methylidene]-2-((1-methyl)ethylsulphanyl)-3,5-dihydro-4H-imidazol-4-one] | 291 to 293
5 | O=C1NC(N2CCCCCC2)=N/C1=C\c1c[nH]c2ncc(Cl)cc12 [Example 25, (5Z)-2-azepan-1-yl-5-[(5-chloro-1H-pyrrolo[2,3-b]pyridin-3-yl)methylidene]-3,5-dihydro-4H-imidazol-4-one] | 310 to 320
6 | Cc1cnc2[nH]cc(/C=C3\N=C(NCC(C)C)NC3=O)c2c1 [Example 44, (5Z)-2-[(2-methylpropyl)amino]-5-[(5-methyl-1H-pyrrolo[2,3-b]pyridin-3-yl)methylidene]-3,5-dihydro-4H-imidazol-4-one] | 338 to 339
7 | O=C1NC(N2CCCCCC2)=N/C1=C\c1c[nH]c2ncc(F)cc12 [Example 36, (5Z)-2-azepan-1-yl-5-[(5-fluoro-1H-pyrrolo[2,3-b]pyridin-3-yl)methylidene]-3,5-dihydro-4H-imidazol-4-one] | 299
8 | CSC1=N/C(=C\c2c[nH]c3ncc(Cl)cc23)C(=O)N1 [Example 60, (5Z)-5-[(5-chloro-1H-pyrrolo[2,3-b]pyridin-3-yl)methylidene]-2-(methylsulphanyl)-3,5-dihydro-4H-imidazol-4-one] | > 410
9 | O=C1NC(N2CCCC2)=N/C1=C\c1c[nH]c2ncc(Cl)cc12 [Example 27, (5Z)-5-[(5-chloro-1H-pyrrolo[2,3-b]pyridin-3-yl)methylidene]-2-pyrrolidin-1-yl-3,5-dihydro-4H-imidazol-4-one] | 350 to 360
10 | COc1cnc2[nH]cc(/C=C3\N=C(NCC4CC4)NC3=O)c2c1 [Example 34, (5Z)-2-[(cyclopropylmethyl)amino]-5-[(5-methoxy-1H-pyrrolo[2,3-b]pyridin-3-yl)methylidene]-3,5-dihydro-4H-imidazol-4-one] | 280 to 286
11 | CC(C)CNC1=N/C(=C\c2c[nH]c3ncc(Cl)cc23)C(=O)N1 [Example 29, (5Z)-5-[(5-chloro-1H-pyrrolo[2,3-b]pyridin-3-yl)methylidene]-2-[(2-methylpropyl)amino]-3,5-dihydro-4H-imidazol-4-one] | 325 to 330
12 | O=C1NC(N2CCCCCC2)=N/C1=C\c1c[nH]c2ncc(C(F)(F)F)cc12 [Example 49, (5Z)-2-azepan-1-yl-5-{[5-(trifluoromethyl)-1H-pyrrolo[2,3-b]pyridin-3-yl]methylidene}-3,5-dihydro-4H-imidazol-4-one] | 340
13 | O=C1NC(=S)N/C1=C\c1c[nH]c2ncc(-c3ccccc3)cc12 [Example 16, (5Z)-5-[(5-phenyl-1H-pyrrolo[2,3-b]pyridin-3-yl)methylene]-2-thioxoimidazolidin-4-one] | 265 to 270
14 | O=C1NC(N2CCCCC2)=N/C1=C\c1c[nH]c2ncc(-c3ccccc3)cc12 [Example 40, (5Z)-5-[(5-phenyl-1H-pyrrolo[2,3-b]pyridin-3-yl)methylidene]-2-piperidin-1-yl-3,5-dihydro-4H-imidazol-4-one] | 307
15 | CN1CCN(C2=N/C(=C\c3c[nH]c4ncc(-c5ccccc5)cc34)C(=O)N2)CC1 [Example 41, (5Z)-2-(4-methylpiperazin-1-yl)-5-[(5-phenyl-1H-pyrrolo[2,3-b]pyridin-3-yl)methylidene]-3,5-dihydro-4H-imidazol-4-one] | 304
16 | Cc1cnc2[nH]cc(/C=C3\N=C(N4CCN(c5ccccc5)CC4)NC3=O)c2c1 [Example 46, (5Z)-5-[(5-methyl-1H-pyrrolo[2,3-b]pyridin-3-yl)methylidene]-2-(4-phenylpiperazin-1-yl)-3,5-dihydro-4H-imidazol-4-one] | 331 to 332
17 | O=C1NC(N2CCCCC2)=N/C1=C\c1c[nH]c2ncc(Cl)cc12 [Example 30, (5Z)-5-[(5-chloro-1H-pyrrolo[2,3-b]pyridin-3-yl)methylidene]-2-piperidin-1-yl-3,5-dihydro-4H-imidazol-4-one] | 315 to 320
18 | O=C1NC(NCC2CC2)=N/C1=C\c1c[nH]c2ncc(C(F)(F)F)cc12 [Example 48, (5Z)-2-[(cyclopropylmethyl)amino]-5-{[5-(trifluoromethyl)-1H-pyrrolo[2,3-b]pyridin-3-yl]methylidene}-3,5-dihydro-4H-imidazol-4-one] | 350
19 | CCCSC1=N/C(=C\c2c[nH]c3ncc(Cl)cc23)C(=O)N1 [Example 62, (5Z)-5-[(5-chloro-1H-pyrrolo[2,3-b]pyridin-3-yl)methylidene]-2-(propylsulphanyl)-3,5-dihydro-4H-imidazol-4-one] | 316 to 318

Second part, the molecule after the results:

Row | melting point [°C] | Compound
20 | 287 | O=C1/C(=C/c2c[nH]c3ncc(Cl)cc23)N=C(Oc2ccccc2)N1c1ccccc1 [Example 97, (5Z)-5-[(5-chloro-1H-pyrrolo[2,3-b]pyridin-3-yl)methylidene]-2-phenoxy-3-phenyl-3,5-dihydro-4H-imidazol-4-one]
21 | 270 to 272 | O=C1NC(CCc2ccccc2)=N/C1=C\c1c[nH]c2ncccc12 [Example 67, (5Z)-2-(2-Phenylethyl)-5-(1H-pyrrolo[2,3-b]pyridin-3-ylmethylidene)-3,5-dihydro-4H-imidazol-4-one]
22 | 277 to 280 | CC(C)C1=N/C(=C\c2c[nH]c3ncc(Cl)cc23)C(=O)N1 [Example 80, (5Z)-2-(1-methylethyl)-5-(5-chloro-1H-pyrrolo[2,3-b]pyridin-3-ylmethylidene)-3,5-dihydro-4H-imidazol-4-one]
23 | 274 | CC(C)CCC1=N/C(=C\c2c[nH]c3ncccc23)C(=O)N1 [Example 68, (5Z)-2-(3-methylbutyl)-5-(1H-pyrrolo[2,3-b]pyridin-3-ylmethylidene)-3,5-dihydro-4H-imidazol-4-one]
24 | 309 to 310 | CC(C)C1=N/C(=C\c2c[nH]c3ncccc23)C(=O)N1 [Example 79, (5Z)-2-(1-methylethyl)-5-(1H-pyrrolo[2,3-b]pyridin-3-ylmethylidene)-3,5-dihydro-4H-imidazol-4-one]
25 | 220 to 222 | CCCCC1=N/C(=C\c2c[nH]c3ncccc23)C(=O)N1C [Example 66, (5Z)-2-butyl-3-methyl-5-(1H-pyrrolo[2,3-b]pyridin-3-ylmethylidene)-3,5-dihydro-4H-imidazol-4-one]
26 | 282 | CC(C)CC1=N/C(=C\c2c[nH]c3ncc(Cl)cc23)C(=O)N1C [Example 76, (5Z)-5-[(5-chloro-1H-pyrrolo[2,3-b]pyridin-3-yl)methylidene]-3-methyl-2-(2-methylpropyl)-3,5-dihydro-4H-imidazol-4-one]
27 | 281 | COCCN(C)C1=N/C(=C\c2c[nH]c3ncc(Cl)cc23)C(=O)N1 [Example 95, (5Z)-5-[(5-chloro-1H-pyrrolo[2,3-b]pyridin-3-yl)methylidene]-2-[(2-methoxyethyl)(methyl)amino]-3,5-dihydro-4H-imidazol-4-one]
28 | 261 to 262 | CN1C(=O)/C(=C/c2c[nH]c3ncccc23)N=C1C1CCCCC1 [Example 70, (5Z)-2-cyclohexyl-3-methyl-5-(1H-pyrrolo[2,3-b]pyridin-3-ylmethylidene)-3,5-dihydro-4H-imidazol-4-one]
29 | 222 to 224 | CC(C)C1=N/C(=C\c2c[nH]c3ncccc23)C(=O)N1C [Example 81, (5Z)-3-methyl-2-(1-methylethyl)-5-(1H-pyrrolo[2,3-b]pyridin-3-ylmethylidene)-3,5-dihydro-4H-imidazol-4-one]
30 | 289 | O=C1NC(CC2CC2)=N/C1=C\c1c[nH]c2ncccc12 [Example 77, (5Z)-2-(cyclopropylmethyl)-5-(1H-pyrrolo[2,3-b]pyridin-3-ylmethylidene)-3,5-dihydro-4H-imidazol-4-one]
31 | 315 | CN(Cc1ccco1)C1=N/C(=C\c2c[nH]c3ncc(Cl)cc23)C(=O)N1 [Example 94, (5Z)-5-[(5-chloro-1H-pyrrolo[2,3-b]pyridin-3-yl)methylidene]-2-[(furan-2-ylmethyl)(methyl)amino]-3,5-dihydro-4H-imidazol-4-one]
32 | 318 to 321 | CCCCC1=N/C(=C\c2c[nH]c3nc(Cl)ccc23)C(=O)N1 [Example 65, (5Z)-2-butyl-5-[(6-chloro-1H-pyrrolo[2,3-b]pyridin-3-yl)methylidene]-3,5-dihydro-4H-imidazol-4-one]
33 | 227.5 | COC1=N/C(=C\c2c[nH]c3ncc(Cl)cc23)C(=O)N1c1ccccc1 [Example 98, (5Z)-5-[1-(5-chloro-1H-pyrrolo[2,3-b]pyridin-3-yl)-methylidene]-2-methoxy-3-phenyl-3,5-dihydro-4H-imidazol-4-one]
34 | 338 | CN1C(=O)/C(=C/c2c[nH]c3ncc(Cl)cc23)N=C1C1CCOCC1 [Example 73, (5Z)-5-[(5-chloro-1H-pyrrolo[2,3-b]pyridin-3-yl)methylidene]-3-methyl-2-(tetrahydro-2H-pyran-4-yl)-3,5-dihydro-4H-imidazol-4-one]
35 | 292 to 293 | CC(C)CC1=N/C(=C\c2c[nH]c3ncccc23)C(=O)N1 [Example 74, (5Z)-2-(2-methylpropyl)-5-(1H-pyrrolo[2,3-b]pyridin-3-ylmethylidene)-3,5-dihydro-4H-imidazol-4-one]
